Tests used:
[1] = molecular target: PIKfyve (Homo sapiens, UniProt Q9Y2I7); experiment: Kinase panel screen: inhibition of PIKfyve; format: binding; conditions: 50 nM
Protocol: No other kinase was blocked to that extent by 50 nM of Example 1, indicating its high degree of selectivity.
In contrast, 50 nM Apilimod inhibited two kinases to 1% or 10%, and 3 kinases to 35% of control. To examine non-specific binding at higher concentrations, Example 1, Example 3, and Apilimod were tested at 5000 nM. […] PIKfyve is represented at the bottom left of each dendrogram.

[2] = tested on: Human Glioblastoma multiforme cells (T98G, G22VF, U251) and human medulloblastoma cells (p16, p9); experiment: Cell viability by cell titer-Glo luminescence (ATP level) assay; format: cell-based; conditions: 72 hours, various concentrations
Protocol: Human Glioblastoma multiforme cells (T98G, G22VF, U251) and human medulloblastoma cells (p16, p9) were incubated with various concentrations of Example 1 for 72 hours, and then cell viability assessed by cell titer-Glo luminescence (ATP level) assay.
Methods: Example 1 was dissolved into DMSO (ATCC) at a concentration of 40 mM, this stock was further diluted to 2× the highest final working concentration into complete medium consisting of DMEM (Life Technologies), penicillin/streptomycin antibiotic solution (Life Technologies), and 10% FBS (Seradigm). This stock was dispensed into the final column of a white-walled, flat-bottomed 96-well plate (Corning). Serial dilutions (1.5× or 2× depending on the assay) were then made using complete medium down to the lowest assayed concentration of Example 1. The final column of the 96-well plate was saved as a vehicle-only control and included DMSO diluted 1:250 in complete medium. […]
These plates were placed in a 5% CO2, 37° C. incubator. After 72 hrs of incubation, relative ATP content was measured as an indirect indication of the number of viable cells per well. […] This reaction was protected from light and incubated for 10 min at room temperature, then total luminescence was read using a Synergy H1 microplate reader (Biotek).
Raw luminescence numbers or relative ATP concentration (reported as a percentage of the vehicle-treated control) are show. […]

[3] = tested on: murine lymphoma cells; experiment: Vacuolization seen by light microscopy; format: cell-based
Protocol: Vacuolization due to treatment with Example 1 compound was extremely rapid, becoming visible by light microscopy within 30 minutes or less.

[4] = tested on: U251 or RKO cells; experiment: Cathepsin D western blotting; format: cell-based; conditions: 18 hours
Protocol: Macroautophagy (hereafter “autophagy”) is a process that requires precise fusion of endosomes, autophagosomes, and lysosomes. Lysates from cells treated with Example 1 were prepared and probed by western blotting for LC3-I and LC3-II. Increased levels of LC3-II and increased p62 (sequestesome) were found showing the increased drive to undergo autophagy, in the face of inability to complete the process (i.e. ineffective autophagy). Lysosomes are the final destination of proteins destined for degradation by autophagy, and proteolysis in this organelle depends upon cathepsins among other enzymes.
U251 or RKO cells were treated with Example 1 at the indicated concentrations for 18 hours, and then analyzed by western blotting for cathepsin D and actin (loading control).
U251 or RKO cells were plated onto 10 cm tissue culture dishes and grown in the conditions described previously. When cells were growing in log phase and reached approximately 60% confluency, Example 1 was diluted into the growth media at the indicated concentrations. Cells were incubated at 5% CO2, 37° C. for 18 hr, then washed and harvested as described previously. Cells were pelleted by centrifugation at 180×g, resuspended in 20 mL of 1×PBS pH 7.4, and centrifuged again. […]

[5] = tested on: E2409 murine lymphoma cells; experiment: E2409 lymphoma flank tumor survival study; format: in vivo, Nude mice; conditions: 1 mg daily IP injection vs vehicle only; p<0.02
Protocol: Nude mice were injected in the flank with 1 million E2409 murine lymphoma cells, and allowed to grow for 4 days, at which point a small detectable lump was observed on each mouse. Mice were injected daily by IP injection with 100 μl of vehicle (10% dmso, 20% cremaphor, 70% water) with or without 1 mg of the test compound. Mice were euthanized when tumor size exceeded 1500 mm^3.

[6] = tested on: Glioblastoma (T98G, U251) or colorectal cancer cell lines (HT29, RKO, HCT116); experiment: Killing of glioblastoma and colorectal cancer cell lines by Example 3; format: cell-based
Protocol: Experiments were performed using DMEM-based media for the glioblastoma lines and RMPI-based media for the colorectal lines.

PIKfyve, sequence (Q9Y2I7 whole entry): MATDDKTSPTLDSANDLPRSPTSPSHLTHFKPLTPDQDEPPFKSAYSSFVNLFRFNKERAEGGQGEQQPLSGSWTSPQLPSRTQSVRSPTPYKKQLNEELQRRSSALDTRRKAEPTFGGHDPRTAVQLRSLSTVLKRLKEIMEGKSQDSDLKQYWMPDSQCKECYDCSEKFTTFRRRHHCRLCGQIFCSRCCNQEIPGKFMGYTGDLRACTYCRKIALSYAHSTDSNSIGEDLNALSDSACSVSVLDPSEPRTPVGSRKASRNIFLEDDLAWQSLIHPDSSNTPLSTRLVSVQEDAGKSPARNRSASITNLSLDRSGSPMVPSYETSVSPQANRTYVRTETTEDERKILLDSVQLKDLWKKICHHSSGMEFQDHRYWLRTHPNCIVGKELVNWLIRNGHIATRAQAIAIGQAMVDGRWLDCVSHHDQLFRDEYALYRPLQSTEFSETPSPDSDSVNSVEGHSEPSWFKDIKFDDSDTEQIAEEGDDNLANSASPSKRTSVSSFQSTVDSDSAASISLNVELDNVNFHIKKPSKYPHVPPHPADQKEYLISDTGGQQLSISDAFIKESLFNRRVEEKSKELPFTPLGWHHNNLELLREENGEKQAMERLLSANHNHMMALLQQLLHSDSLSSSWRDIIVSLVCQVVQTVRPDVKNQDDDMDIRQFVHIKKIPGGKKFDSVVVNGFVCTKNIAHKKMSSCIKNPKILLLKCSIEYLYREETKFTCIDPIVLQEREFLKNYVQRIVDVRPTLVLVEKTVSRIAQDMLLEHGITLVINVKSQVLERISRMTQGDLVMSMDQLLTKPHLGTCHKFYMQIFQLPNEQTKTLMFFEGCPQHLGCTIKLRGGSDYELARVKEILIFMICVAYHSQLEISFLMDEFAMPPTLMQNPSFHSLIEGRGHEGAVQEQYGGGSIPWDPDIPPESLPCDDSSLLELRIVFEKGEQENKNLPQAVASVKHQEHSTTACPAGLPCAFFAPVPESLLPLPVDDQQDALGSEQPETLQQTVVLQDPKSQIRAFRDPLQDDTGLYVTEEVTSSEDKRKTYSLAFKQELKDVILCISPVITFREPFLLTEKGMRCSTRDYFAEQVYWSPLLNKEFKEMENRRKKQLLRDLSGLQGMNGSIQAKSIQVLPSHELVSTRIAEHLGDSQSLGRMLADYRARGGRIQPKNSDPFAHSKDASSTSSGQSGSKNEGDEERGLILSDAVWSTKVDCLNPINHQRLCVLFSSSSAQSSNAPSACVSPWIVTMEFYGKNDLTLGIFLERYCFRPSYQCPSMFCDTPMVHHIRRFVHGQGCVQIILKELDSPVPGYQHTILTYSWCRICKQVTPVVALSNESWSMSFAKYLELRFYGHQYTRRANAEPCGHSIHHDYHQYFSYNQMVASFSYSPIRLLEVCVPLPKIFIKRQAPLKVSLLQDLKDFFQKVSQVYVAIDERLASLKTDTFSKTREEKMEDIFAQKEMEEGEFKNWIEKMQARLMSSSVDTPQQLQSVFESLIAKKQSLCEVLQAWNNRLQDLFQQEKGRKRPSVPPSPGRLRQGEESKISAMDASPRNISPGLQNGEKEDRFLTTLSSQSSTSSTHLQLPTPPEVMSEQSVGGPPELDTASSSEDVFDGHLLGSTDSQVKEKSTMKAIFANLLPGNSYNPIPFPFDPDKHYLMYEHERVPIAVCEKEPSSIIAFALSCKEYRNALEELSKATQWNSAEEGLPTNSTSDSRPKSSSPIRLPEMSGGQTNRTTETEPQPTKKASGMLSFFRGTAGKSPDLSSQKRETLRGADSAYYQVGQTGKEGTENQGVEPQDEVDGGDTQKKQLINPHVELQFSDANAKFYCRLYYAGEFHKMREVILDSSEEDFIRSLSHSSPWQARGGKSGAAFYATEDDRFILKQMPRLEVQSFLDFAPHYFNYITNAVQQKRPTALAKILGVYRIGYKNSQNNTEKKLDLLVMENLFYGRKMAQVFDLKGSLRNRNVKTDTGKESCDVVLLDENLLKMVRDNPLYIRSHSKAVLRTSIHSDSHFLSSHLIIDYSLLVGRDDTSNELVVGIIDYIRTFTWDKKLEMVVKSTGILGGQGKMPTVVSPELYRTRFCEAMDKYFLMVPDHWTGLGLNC

SMILES	inhibition at 0.05 µM [1]	cell viability (ATP level) [2]	time until vacuolization visible by light microscopy [3]	mature cleaved cathepsin [4]	uncleaved precursor cathepsin D [4]	survival [5]	sensitivity to killing [6]
Cc1ccc(Nc2nc(N/N=C/c3c[nH]c4ccccc34)nc(N3CCOCC3)n2)cc1 [Example 1, (E)-4-(2-((1H-indol-3-yl)methylene)hydrazinyl)-6-morpholino-N-(p-tolyl)-1,3,5-triazin-2-amine]	> 99%	killed effectively	≤ 30 min	relative loss	accumulation	prolonged survival	–
Cc1ccc(Nc2nc(N/N=C/c3c[nH]c4ccccc34)cc(N3CCOCC3)n2)cc1 [Example 3, (E)-4-(2-((1H-indol-3-yl)methylene)hydrazinyl)-6-morpholino-N-(p-tolyl)pyrimidin-2-amine]	–	–	–	–	–	–	sensitive to killing

Reference: patent publication US12030896B2, “PIKfyve inhibitors” (Mayo Foundation for Medical Education and Research, priority 2018, dated 2024)
